Results from article PMC3944923, “Intestinal Transportations of Main Chemical Compositions of Polygoni Multiflori Radix in Caco-2 Cell Model” (Evidence-based Complementary and Alternative Medicine : eCAM, 2014).
“Also recorded” adds a separate entry of the source.

Tested on: Caco-2 cell monolayer
Test: Caco-2 cell monolayer transport (absorption, AP → BL), HPLC-DAD
Details: Caco-2 assay
Procedure: (§1) The cells were left to grow for 21 days to reach confluence and differentiation, so that Caco-2 cells were fully differentiated in this assay and used for further experiments.
(§2) Flux describes the movement of a substance across polarized Caco-2 monolayers either in absorptive (apical → basolateral, AP → BL) or secretary direction (basolateral → apical, BL → AP). Absorption assay was carried out in this research.
(§3) To determine the concentration of corresponding constituents in both AP and BL sides, the lyophilized samples of AP and BL sides were dissolved in quantitative methanol by ultrasound for 20 min and then filtered by 0.45 μm filtration membranes.

SMILES	recovery rate (in words)
Cc1cc(O)c2c(c1)C(=O)c1cc(O)cc(O)c1C2=O [EN, emodin]	poor recovery rates; also recorded: low recovery rates
OC[C@H]1O[C@@H](Oc2c(O)cc(O)cc2/C=C/c2ccc(O)cc2)[C@H](O)[C@@H](O)[C@@H]1O [TSG, 2,3,5,4′-tetrahydroxystilbene-2-O-β-D-glucoside]	poor recovery rates; also recorded: low recovery rates

Same assay, conditions: Caco-2 monolayer, AP → BL

absorption by human intestinal epithelial cells, judged from P app against atenolol and propranolol	SMILES
hardly absorbed	OC[C@H]1O[C@@H](Oc2cc(O)cc(/C=C/c3ccc(O)cc3)c2)[C@H](O)[C@@H](O)[C@@H]1O [PL, polydatin]
partly absorbed	Oc1ccc(/C=C/c2cc(O)cc(O)c2)cc1 [RL, resveratrol]
partly absorbed	O=C(O)c1cc(O)c2c(c1)C(=O)c1cccc(O)c1C2=O [RN, rhein]

SMILES	absorption by human intestinal epithelial cells, judged from P app against atenolol and propranolol
O=C1c2cccc(O)c2C(=O)c2c(O)cc(CO)cc21 [AE, aloe-emodin]	partly absorbed
OC[C@H]1O[C@@H](Oc2c(O)cc(O)cc2/C=C/c2ccc(O)cc2)[C@H](O)[C@@H](O)[C@@H]1O [TSG, 2,3,5,4′-tetrahydroxystilbene-2-O-β-D-glucoside]	hardly absorbed; also recorded: poorly absorbed

Tested on: not listed separately
Test: as above
Details: human, Caco-2
Procedure: as §1, §2, §3

Papp at 1.5 h [×10⁻⁶ cm/s]	SMILES	recovery at 1.5 h [%]
0.00492	OC[C@H]1O[C@@H](Oc2cc(O)cc(/C=C/c3ccc(O)cc3)c2)[C@H](O)[C@@H](O)[C@@H]1O [PL, polydatin]	–
0.0607	CC(C)NCC(O)COc1cccc2ccccc12 (stereo not drawn) [PR, Propranolol, reference compound]	–
0.0178	Oc1ccc(/C=C/c2cc(O)cc(O)c2)cc1 [RL, resveratrol]	–
0.0171	O=C(O)c1cc(O)c2c(c1)C(=O)c1cccc(O)c1C2=O [RN, rhein]	–
0.00237	OC[C@H]1O[C@@H](Oc2c(O)cc(O)cc2/C=C/c2ccc(O)cc2)[C@H](O)[C@@H](O)[C@@H]1O [TSG, 2,3,5,4′-tetrahydroxystilbene-2-O-β-D-glucoside]	–

SMILES	Papp at 1.5 h [×10⁻⁶ cm/s]	recovery at 1.5 h [%]
O=C1c2cccc(O)c2C(=O)c2c(O)cc(CO)cc21 [AE, aloe-emodin]	0.0195	42.4 ± 6.32
Cc1cc(O)c2c(c1)C(=O)c1cc(O)cc(O)c1C2=O [EN, emodin]	0.00248	14.5 ± 2.5

Same assay, conditions: human, Caco-2, Recovery rate, total compound in donor and receiver at end / initial compound; Caco-2, 90 min; Mean ± SD, n ≥ 3

recovery at 1.5 h [%]	SMILES
59.9 ± 9.9	OC[C@H]1O[C@@H](Oc2cc(O)cc(/C=C/c3ccc(O)cc3)c2)[C@H](O)[C@@H](O)[C@@H]1O [PL, polydatin]
~100	CC(C)NCC(O)COc1cccc2ccccc12 (stereo not drawn) [PR, Propranolol, reference compound]
62.4 ± 6.21	Oc1ccc(/C=C/c2cc(O)cc(O)c2)cc1 [RL, resveratrol]
~100	O=C(O)c1cc(O)c2c(c1)C(=O)c1cccc(O)c1C2=O [RN, rhein]
17.4 ± 1.6	OC[C@H]1O[C@@H](Oc2c(O)cc(O)cc2/C=C/c2ccc(O)cc2)[C@H](O)[C@@H](O)[C@@H]1O [TSG, 2,3,5,4′-tetrahydroxystilbene-2-O-β-D-glucoside]
